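Method: 48-hour compound exposure of cells in 96-well plates, five concentrations, linear interpolation of endpoints. At the TGI there is no net growth.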
System: RXF-631 renal
Assay: NCI tumour cell line growth inhibition, 48 h

| Structure (SMILES) | TGI |
| --- | --- |
| CCCCCCCCCCCC[N+](CCCCCCCCCCCC)=C1SCCS1 | 52.2 µM |
| O=C1NC2CCCCCC2C12CCCCC2 (stereo not drawn) | > 100 µM |
| COC(=O)C(=O)Cc1nc2ccccc2o1 | > 100 µM |

Reference: PubChem BioAssay (NCI)
